According to ChEMBL document CHEMBL6109155, “Discovery of Phenylacylpiperidine as Novel sEH Inhibitors through Scaffold Hopping of Natural Stilbene” (J Med Chem, 2025):
Calls of active or inactive are those of the source. The calls are words filed in the database; no cut-off is given here.

Assays:
Mus musculus [1] = assay: Anti-inflammatory activity in BALB/c mouse model of carrageenan-induced paw edema assessed as decrease in plasma 14,15-DHET levels at 10 mg/kg, po measured after 6 hrs; assay type: functional, organism-based
Mus musculus [2] = assay: Anti-inflammatory activity in BALB/c mouse model of carrageenan-induced paw edema assessed as increase in ratio of 11,12-EET to DHET plasma levels at 10 mg/kg, po measured after 6 hrs; assay type: functional, organism-based
RAW264.7 [3] = assay: Upregulation of IL-10 level in LPS-indeced mouse RAW264.7 cells at 10 uM preincubated for 1 hr followed by LPS addition measured after 24 hrs by ELISA; assay type: functional, cell-based
RAW264.7 [4] = assay: Anti-inflammatory activity in LPS-indeced mouse RAW264.7 cells assessed as reduction in IL-6 level at 10 uM preincubated for 1 hr followed by LPS addition measured after 24 hrs by ELISA; assay type: functional, cell-based
Mus musculus [5] = assay: Anti-inflammatory activity in BALB/c mouse model of carrageenan-induced paw edema assessed as inhibition of paw swelling at 10 mg/kg, po measured up to 6 hrs relative to control; assay type: functional
Mus musculus [6] = assay: Anti-inflammatory activity in BALB/c mouse model of carrageenan-induced paw edema assessed as increase in ratio of 14,15-EET to DHET plasma levels at 10 mg/kg, po measured after 6 hrs; assay type: functional, organism-based
RAW264.7 [7] = assay: Anti-inflammatory activity in LPS-indeced mouse RAW264.7 cells assessed as reduction in TNF-alpha level at 10 uM preincubated for 1 hr followed by LPS addition measured after 24 hrs by ELISA; assay type: functional, cell-based; details: time 25.0 hrs
Mus musculus [8] = assay: Anti-inflammatory activity in BALB/c mouse model of carrageenan-induced paw edema assessed as decrease in plasma 8,9-DHET levels at 10 mg/kg, po measured after 6 hrs; assay type: functional, organism-based
Mus musculus [9] = assay: Effect on liver sEH protein content in BALB/c mouse model of carrageenan-induced paw edema at 1 to 10 mg/kg, po measured after 6 hrs; assay type: functional, organism-based; details: dose 1-10 mg/kg
RAW264.7 [10] = assay: Anti-inflammatory activity in LPS-indeced mouse RAW264.7 cells assessed as reduction in IL-1beta level at 10 uM preincubated for 1 hr followed by LPS addition measured after 24 hrs by ELISA; assay type: functional, cell-based
Mus musculus [11] = assay: Anti-inflammatory activity in BALB/c mouse model of carrageenan-induced paw edema assessed as increase in ratio of 8,9-EET to DHET plasma levels at 10 mg/kg, po measured after 6 hrs; assay type: functional, organism-based
RAW264.7 [12] = assay: Effect on IL-10 level in LPS-indeced mouse RAW264.7 cells at 10 uM preincubated for 1 hr followed by LPS addition measured after 24 hrs by ELISA; assay type: functional, cell-based
Mus musculus [13] = assay: Effect on liver sEH enzyme activity in BALB/c mouse model of carrageenan-induced paw edema at 1 to 10 mg/kg, po measured after 6 hrs; assay type: functional, organism-based; details: dose 1-10 mg/kg
RAW264.7 [14] = assay: Effect on IL-6 level in LPS-indeced mouse RAW264.7 cells at 10 uM preincubated for 1 hr followed by LPS addition measured after 24 hrs by ELISA; assay type: functional, cell-based
Mus musculus [15] = assay: Anti-inflammatory activity in BALB/c mouse model of carrageenan-induced paw edema assessed as decrease in plasma 11,12-DHET levels at 10 mg/kg, po measured after 6 hrs; assay type: functional, organism-based
Mus musculus [16] = assay: Anti-inflammatory activity in BALB/c mouse model of carrageenan-induced paw edema assessed as inhibition of paw swelling at 20 mg/kg, po measured for 4 hrs relative to control; assay type: functional
Mus musculus [17] = assay: Anti-inflammatory activity in BALB/c mouse model of carrageenan-induced paw edema assessed as inhibition of paw swelling at 20 mg/kg, po measured for 0.5 hrs relative to control; assay type: functional; details: Mus musculus, BALB/c
[18] = molecular target: T1, Bifunctional epoxide hydrolase 2 (Mus musculus, UniProt P34914); assay: biochemical
T1 sequence (P34914 whole entry): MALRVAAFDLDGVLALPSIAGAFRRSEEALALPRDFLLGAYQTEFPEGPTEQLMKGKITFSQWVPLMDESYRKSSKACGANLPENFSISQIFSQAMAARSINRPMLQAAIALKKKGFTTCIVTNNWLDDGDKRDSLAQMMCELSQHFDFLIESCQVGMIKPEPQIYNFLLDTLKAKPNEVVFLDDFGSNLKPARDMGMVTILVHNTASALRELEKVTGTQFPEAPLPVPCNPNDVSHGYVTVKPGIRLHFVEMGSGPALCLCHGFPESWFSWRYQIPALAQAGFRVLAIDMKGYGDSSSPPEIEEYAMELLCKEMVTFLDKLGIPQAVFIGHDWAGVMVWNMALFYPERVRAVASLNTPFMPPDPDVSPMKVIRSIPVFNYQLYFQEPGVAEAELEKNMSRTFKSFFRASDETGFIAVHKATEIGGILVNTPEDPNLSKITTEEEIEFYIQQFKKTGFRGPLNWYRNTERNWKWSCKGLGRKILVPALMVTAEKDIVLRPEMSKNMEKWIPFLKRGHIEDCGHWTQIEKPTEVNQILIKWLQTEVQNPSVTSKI
Description: Inhibition of C57BL/6J mouse brain sEH using 14,15-EET as substrate preincubated for 15 mins followed by substrate addition by HPLC-MS analysis

Structure (SMILES) | Activity (Mus musculus [1]) | Activity (Mus musculus [2]) | Activity (RAW264.7 [3]) | Activity (RAW264.7 [4]) | Imax (Mus musculus [5]) | Activity (Mus musculus [6]) | Activity (RAW264.7 [7]) | Activity (Mus musculus [8]) | Activity (Mus musculus [9]) | Activity (RAW264.7 [10]) | Activity (Mus musculus [11]) | Activity (RAW264.7 [12]) | Activity (Mus musculus [13]) | Activity (RAW264.7 [14]) | Activity (Mus musculus [15]) | inhibition in vivo at 20 mg/kg (Mus musculus [16]) | inhibition in vivo at 20 mg/kg (Mus musculus [17]) | IC50 [18]
CC[C@H](C)C(=O)N1CCC(NC(=O)Nc2ccc(OC(F)(F)F)c(F)c2)CC1 | Active | Active | Active | Active | 30.6% | Active | Active | Active | Active | Active | Active | No effect | Active | No effect | Active |  |  | 
COc1cc(OC)c2c(c1)C1Cc3ccc(NC(=O)NCc4ccc(OC(F)(F)F)cc4)cc3CN1CC2 (stereo not drawn) |  |  |  |  |  |  |  |  |  |  |  |  |  |  |  | 38.5% | 24.7% | 1.44 nM
